Measured values: patent US8796180B2, “Aminoquinazoline compounds for combating invertebrate pests” (BASF SE, priority 2009, dated 2014)

Legend:
Assay type in all cases: in vivo
[1] = tested on: Southern Armyworm (Spodoptera eridania, 2nd instar larvae); assay: Southern Armyworm foliar spray test on lima bean plants (B.1); details: 96 h, assessed 4 days after treatment, read-out: mortality in comparison with untreated controls
Protocol: B.1 Southern Armyworm (Spodoptera eridania, 2nd instar larvae)
The active compounds were formulated in cyclohexanone as a 10,0000 ppm solution supplied in 1.3 ml ABgene® tubes. These tubes were inserted into an automated electrostatic sprayer equipped with an atomizing nozzle and they served as stock solutions for which lower dilutions were made in 50% acetone: 50% water (v/v). A nonionic surfactant (Kinetic®) was included in the solution at a volume of 0.01% (v/v). Lima bean plants (variety Sieva) were grown 2 plants to a pot and selected for treatment at the 1st true leaf stage. Test solutions were sprayed onto the foliage by an automated electrostatic plant sprayer equipped with an atomizing spray nozzle. The plants were dried in the sprayer fume hood and then removed from the sprayer. Each pot was placed into perforated plastic bags with a zip closure. Ten to 11 armyworm larvae were placed into the bag and the bags zipped closed. Test plants were maintained in a growth room at 25° C. and 20-40% relative humidity for 4 days, avoiding direct exposure to fluorescent light (24 hour photoperiod) to prevent trapping of heat inside the bags. Mortality and reduced feeding were assessed 4 days after treatment, compared to untreated control plants.

[2] = tested on: Mediterranean fruitfly (Ceratitis capitata); assay: Mediterranean fruitfly insect diet microtiter test (B.9); details: 120 h, test concentration 800 ppm, egg and larval mortality on insect diet, 5 days
Protocol: B. 9 Mediterranean fruitfly (Ceratitis capitata)
(§1) For evaluating control of Mediterranean fruitfly (Ceratitis capitata) the test unit consisted of microtiter plates containing an insect diet and 50-80 C. capitata eggs. The compounds were formulated using a solution containing 75% v/v water and 25% v/v DMSO. Different concentrations of formulated compounds were sprayed onto the insect diet at 5 μl, using a custom built micro atomizer, at two replications. After application, microtiter plates were incubated at about 28±1° C. and about 80±5% relative humidity for 5 days. Egg and larval mortality was then visually assessed.

[3] = tested on: Tobacco budworm (Heliothis virescens); assay: Tobacco budworm insect diet microtiter test (B.10); details: 120 h, test concentration 800 ppm, egg and larval mortality on insect diet, 5 days
Protocol: B.10 Tobacco budworm (Heliothis virescens)
as §1, with “of tobacco budworm (Heliothis virescens)” for “of Mediterranean fruitfly (Ceratitis capitata)”, “unit consists” for “unit consisted”, “of 96-well-microtiter” for “of microtiter”, “and 15-25 H. virescens” for “and 50-80 C. capitata”, “at 10” for “at 5”

[4] = tested on: Diamondback moth (Plutella xylostella); assay: Diamondback moth leaf-dip test on Chinese cabbage (B.4); details: test concentration 500 ppm, dipped Chinese cabbage leaves, mortality recorded 24, 72 and 120 hours after treatment, read-out: mortality in comparison with untreated controls
Protocol: B.4 Diamondback moth (Plutella xylostella)
The active compound was dissolved at the desired concentration in a mixture of 1:1 (vol:vol) distilled water:acetone. The test solution was prepared at the day of use.
The activity against Plutella xylostella can be tested by the following experiments:
Leaves of Chinese cabbage were dipped in test solution and air-dried. Treated leaves were placed in petri dished lined with moist filter paper. Mortality was recorded 24, 72, and 120 hours after treatment.

[5] = tested on: Colorado potato beetle (Leptinotarsa decemlineata, adult); assay: Colorado potato beetle test on treated eggplant foliage (B.3); details: test concentration 300 ppm, assessed 4 days after treatment
Protocol: B.3 Colorado potato beetle (Leptinotarsa decemlineata, adult)
The active compounds were formulated in cyclohexanone as a 10,0000 ppm solution supplied in 1.3 ml ABgene® tubes. These tubes were inserted into an automated electrostatic sprayer equipped with an atomizing nozzle and they served as stock solutions for which lower dilutions were made in 50% acetone:50% water (v/v). A nonionic surfactant (Kinetic®) was included in the solution at a volume of 0.01% (v/v). Eggplants were grown 2 plants to a pot and were selected for treatment at the 1st true leaf stage. Test solutions were sprayed onto the foliage by an automated electrostatic plant sprayer equipped with an atomizing spray nozzle. The plants were dried in the sprayer fume hood and then removed from the sprayer. The treated foliage was then cut and removed from the pot and placed in a 5-inch Petri dish lined with moistened filter paper. Five beetle larvae were introduced into each Petri dish and the dish was covered by a Petri dish lid. Petri dishes were maintained in a growth room at 25° C. and 20-40% relative humidity for 4 days, avoiding direct exposure to fluorescent light (24 hour photoperiod) to prevent trapping of heat inside the dishes. Mortality and reduced feeding were assessed 4 days after treatment, compared to untreated control plants.

| SMILES | mortality at 300 ppm [1] [%] | mortality at 800 ppm [2] [%] | mortality at 800 ppm [3] [%] | mortality at 500 ppm [4] [%] | mortality in comparison with untreated controls [5] |
| --- | --- | --- | --- | --- | --- |
| CCNc1nc(-c2ccc(Cl)cc2)nc2cc(C(F)(F)F)ccc12 [I-99, [2-(4-Chloro-phenyl)-7-trifluoromethyl-quinazolin-4-yl]ethylamine] | ≥ 50 | ≥ 50 | ≥ 50 | ≥ 50 |  |
| CCNc1nc(-c2ccc(F)cc2)nc2cc(C(F)(F)F)ccc12 [I-201] |  |  |  |  | at least 50% |
| CCNc1nc(-c2ccc(C(F)(F)F)cc2)nc2cc(C(F)(F)F)ccc12 [I-209, [2-(4-Trifluoromethylphenyl)-7-trifluoromethyl-quinazolin-4-yl]ethylamine] |  | ≥ 50 | ≥ 50 | ≥ 50 |  |
